One assay addresses T1, Caspase-6 (Homo sapiens, UniProt P55212).
T1 sequence (P55212 whole entry): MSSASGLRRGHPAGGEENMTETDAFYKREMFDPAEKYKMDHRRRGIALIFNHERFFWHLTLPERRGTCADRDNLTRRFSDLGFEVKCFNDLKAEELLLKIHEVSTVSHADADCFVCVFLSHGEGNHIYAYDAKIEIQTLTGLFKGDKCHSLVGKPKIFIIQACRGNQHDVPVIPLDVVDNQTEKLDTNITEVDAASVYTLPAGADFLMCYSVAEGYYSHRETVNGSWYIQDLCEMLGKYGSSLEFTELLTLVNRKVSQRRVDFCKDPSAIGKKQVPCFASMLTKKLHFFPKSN
As to the kind of experiment: human caspase-6 inhibitors, dose response, biochemical, VEID-R110 fluorescence, cherry-pick (AID 720632).

The target of assay [1] is T2, Calpain-2 catalytic subunit (Sus scrofa, UniProt P43367).
T2 sequence (P43367 whole entry): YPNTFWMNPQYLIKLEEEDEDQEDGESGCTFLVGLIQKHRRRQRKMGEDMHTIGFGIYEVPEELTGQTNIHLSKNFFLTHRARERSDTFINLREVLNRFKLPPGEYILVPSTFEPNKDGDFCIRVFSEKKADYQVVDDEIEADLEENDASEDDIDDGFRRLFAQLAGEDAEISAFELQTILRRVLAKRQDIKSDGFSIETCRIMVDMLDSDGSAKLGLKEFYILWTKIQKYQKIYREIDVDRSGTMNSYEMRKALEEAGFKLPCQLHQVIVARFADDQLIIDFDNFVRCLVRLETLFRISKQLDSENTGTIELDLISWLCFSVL
Description: pig calpain II inhibitor potency, dose response, biochemical, fluorogenic peptide substrate (AID 1420). The format is functional.

Assay [2] deals with T3, SUMO-activating enzyme (Homo sapiens, UniProt Q9UBT2). As to the kind of experiment: SUMOylation inhibitor hit validation, confirmation, SUMOylation inhibitor project, biochemical, AlphaScreen (AID 2018). The format is functional.
T3 sequence (Q9UBE0 whole entry): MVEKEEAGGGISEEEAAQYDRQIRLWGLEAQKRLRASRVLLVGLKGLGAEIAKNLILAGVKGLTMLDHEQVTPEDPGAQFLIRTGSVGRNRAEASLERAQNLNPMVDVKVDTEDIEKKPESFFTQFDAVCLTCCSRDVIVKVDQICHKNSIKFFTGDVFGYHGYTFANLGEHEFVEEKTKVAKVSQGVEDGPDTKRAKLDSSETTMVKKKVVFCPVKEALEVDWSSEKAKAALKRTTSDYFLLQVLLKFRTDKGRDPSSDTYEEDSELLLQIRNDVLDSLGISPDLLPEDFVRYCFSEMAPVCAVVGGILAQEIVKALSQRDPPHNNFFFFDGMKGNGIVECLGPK
T3 sequence (Q9UBT2 whole entry): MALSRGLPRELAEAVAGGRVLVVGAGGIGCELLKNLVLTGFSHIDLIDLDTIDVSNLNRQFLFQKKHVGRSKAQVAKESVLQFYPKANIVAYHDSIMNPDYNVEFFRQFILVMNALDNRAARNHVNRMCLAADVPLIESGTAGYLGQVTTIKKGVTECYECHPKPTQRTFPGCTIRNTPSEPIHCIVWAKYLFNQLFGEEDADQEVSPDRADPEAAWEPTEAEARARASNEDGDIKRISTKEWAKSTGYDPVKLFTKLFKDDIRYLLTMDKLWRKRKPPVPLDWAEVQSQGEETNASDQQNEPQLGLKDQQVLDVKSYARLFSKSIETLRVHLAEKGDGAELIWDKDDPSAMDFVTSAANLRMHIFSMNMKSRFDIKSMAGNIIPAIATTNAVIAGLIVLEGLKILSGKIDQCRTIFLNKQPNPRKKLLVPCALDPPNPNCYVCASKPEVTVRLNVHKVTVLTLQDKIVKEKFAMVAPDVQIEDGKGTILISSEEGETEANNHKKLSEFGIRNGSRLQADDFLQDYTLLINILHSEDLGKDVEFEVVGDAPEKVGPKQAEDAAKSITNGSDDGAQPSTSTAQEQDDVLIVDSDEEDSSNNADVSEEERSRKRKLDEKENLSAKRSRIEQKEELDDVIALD
Assay [3] addresses T3, SUMO-activating enzyme. As to the kind of experiment: inhibitors of in vitro SUMOylation cascade, primary screen, biochemical, HTRF, uHTS (AID 2006). The format is protein-complex assay.
The target in assay [4] is Induced myeloid leukemia cell differentiation protein Mcl-1 (Homo sapiens, UniProt Q07820). The format is functional.
Induced myeloid leukemia cell differentiation protein Mcl-1, sequence (Q07820 whole entry): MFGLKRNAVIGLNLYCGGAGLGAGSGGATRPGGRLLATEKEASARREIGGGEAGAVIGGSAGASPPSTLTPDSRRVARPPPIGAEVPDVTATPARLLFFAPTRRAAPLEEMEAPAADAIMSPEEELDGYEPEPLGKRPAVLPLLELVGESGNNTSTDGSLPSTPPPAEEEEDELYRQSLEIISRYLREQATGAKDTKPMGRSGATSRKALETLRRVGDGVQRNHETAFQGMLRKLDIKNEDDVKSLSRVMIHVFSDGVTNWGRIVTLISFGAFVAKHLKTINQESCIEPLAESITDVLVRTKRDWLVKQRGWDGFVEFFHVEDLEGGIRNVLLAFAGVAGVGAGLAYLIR
Assay [5] has as its target Bifunctional protein GlmU (Mycobacterium tuberculosis, UniProt P9WMN3). As to the kind of experiment: Inhibitors of Mycobacterial Glucosamine-1-phosphate acetyl transferase (GlmU). Secondary screen. On the set-up: species or system Mycobacterium tuberculosis H37Rv.
In another assay the target is Protein Tat (Human immunodeficiency virus type 1 group M subtype B (isolate HXB2)(HIV-1), UniProt P04608). The format is functional.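 Also: tat binding to TAR RNA read out by fluorescence polarization.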
Protein Tat, sequence (P04608 whole entry): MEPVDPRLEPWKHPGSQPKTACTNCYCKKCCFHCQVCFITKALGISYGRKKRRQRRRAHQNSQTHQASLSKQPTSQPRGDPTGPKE
Assay [6] can be described thus: inhibitors of SNCA 5'UTR-driven translation, confirmation, luminescence, H4 neuroglioblastoma cells, dose confirmation (AID 2454).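 Also: H4 neuroglioblastoma cells carrying an alpha-synuclein 5'UTR luciferase reporter; potency for inhibition of the luciferase signal.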 The format is functional, cell-based.
The nature of assay [7]: inhibitors of SNCA 5'UTR-driven reporter translation, confirmation, H4 neuroglioma cells, luminescence (AID 1988). The format is functional, cell-based.
The target in assay [8] is T4, RNA-binding protein pos-1 (Caenorhabditis elegans, UniProt G5EF15).
T4 sequence (G5EF15 whole entry): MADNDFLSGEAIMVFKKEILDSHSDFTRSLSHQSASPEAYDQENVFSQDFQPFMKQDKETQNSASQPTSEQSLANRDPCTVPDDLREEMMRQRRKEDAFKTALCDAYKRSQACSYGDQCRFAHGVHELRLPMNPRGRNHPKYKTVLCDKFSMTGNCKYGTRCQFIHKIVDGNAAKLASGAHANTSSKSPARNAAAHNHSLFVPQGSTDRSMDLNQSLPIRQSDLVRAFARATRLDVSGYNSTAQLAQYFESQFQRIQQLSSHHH
As to the kind of experiment: inhibitors of POS-1/mex-3 RNA binding, dose response, biochemical, fluorescence polarization (AID 1964).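 Also: purified POS-1 fused to maltose binding protein made in E. coli; potency of compounds blocking POS-1 binding to fluorescent RNA.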 Background: In fluorescence polarisation assays a small probe gives low polarisation when free and higher when bound to something large.

The nature of assay [9]: Luminescence Cell-Based Dose Response HTS to Identify Inhibitors of 5'UTR Stem-Loop Driven Prion Protein mRNA Translation in H4 Neuroglioblastoma Cells. [Related pubchem assays: 1827 (Project Summary), 1813 (Primary HTS)]. It counts as functional.
The nature of assay [10]: inhibitors of firefly luciferase expression or activity, dose response, H4 neuroglioma cells, luminescence (AID 1990). The format is functional, cell-based.
The target in assay [11] is Glucose-6-phosphate 1-dehydrogenase (Homo sapiens, UniProt P11413). As to the kind of experiment: human G6PD enzyme inhibitors, dose response, selectivity assay for P. falciparum G6PD inhibitor project, biochemical, fluorescence (AID 504792). It counts as functional.
Glucose-6-phosphate 1-dehydrogenase, sequence (P11413 whole entry, the tested form may be a part): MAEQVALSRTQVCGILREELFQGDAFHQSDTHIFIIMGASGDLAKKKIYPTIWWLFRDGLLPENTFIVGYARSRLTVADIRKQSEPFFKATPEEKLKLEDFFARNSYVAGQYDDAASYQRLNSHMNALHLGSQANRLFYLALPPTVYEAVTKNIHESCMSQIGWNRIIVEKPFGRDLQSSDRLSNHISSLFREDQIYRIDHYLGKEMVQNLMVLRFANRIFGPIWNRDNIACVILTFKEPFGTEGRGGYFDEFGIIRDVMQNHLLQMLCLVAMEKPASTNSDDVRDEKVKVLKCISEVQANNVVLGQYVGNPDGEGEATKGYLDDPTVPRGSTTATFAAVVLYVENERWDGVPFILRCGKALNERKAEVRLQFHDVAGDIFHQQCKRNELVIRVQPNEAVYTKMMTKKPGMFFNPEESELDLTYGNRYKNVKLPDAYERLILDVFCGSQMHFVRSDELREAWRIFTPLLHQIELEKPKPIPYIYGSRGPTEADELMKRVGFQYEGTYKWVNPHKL
A short description of assay [12]: luciferase reporter signal reduction – luminescence, H4-C neuroglioblastoma cells, dose response (AID 2458).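 Also: H4 neuroglioblastoma cells stably carrying a luciferase reporter gene fusion.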 The format is functional, cell-based. For orientation: A reporter such as luciferase makes a cellular process visible.
The target of assay [13] is T5, Zinc finger protein mex-5 (Caenorhabditis elegans, UniProt Q9XUB2).
T5 sequence (Q9XUB2 whole entry): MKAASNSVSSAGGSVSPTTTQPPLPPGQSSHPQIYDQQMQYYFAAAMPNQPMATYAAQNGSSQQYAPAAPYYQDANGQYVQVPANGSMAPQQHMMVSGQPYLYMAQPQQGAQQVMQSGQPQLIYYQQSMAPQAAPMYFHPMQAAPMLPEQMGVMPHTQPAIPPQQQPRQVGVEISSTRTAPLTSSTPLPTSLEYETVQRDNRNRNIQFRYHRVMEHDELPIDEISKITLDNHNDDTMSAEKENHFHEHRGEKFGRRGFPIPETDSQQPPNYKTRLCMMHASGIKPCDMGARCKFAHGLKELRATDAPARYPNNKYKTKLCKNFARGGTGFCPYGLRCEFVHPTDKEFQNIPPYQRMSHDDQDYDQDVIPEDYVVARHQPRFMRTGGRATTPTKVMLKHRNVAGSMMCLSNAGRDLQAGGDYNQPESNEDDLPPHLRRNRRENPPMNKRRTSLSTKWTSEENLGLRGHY
As to the kind of experiment: MEX-5/TCR-2 RNA interaction inhibitors, dose response, biochemical, C. elegans, fluorescence polarization (AID 1960).

Assay [14] concerns the target RNA-editing ligase 1, mitochondrial (Trypanosoma brucei brucei, UniProt P86926). Description: TbREL1 ligase inhibitors, dose response, biochemical, fluorescence, Trypanosoma brucei (AID 1117295). The format is functional.
Assay [15] can be described thus: P. falciparum 3D7-ScDHODH growth inhibitors, dose response, SYBR Green, dry powder samples (AID 1159570).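 Also: parasite growth measured after 72 hours of compound exposure.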 The format is functional, cell-based.
The nature of assay [16]: P. falciparum ATP4 D1247Y mutant growth inhibitors, dose response, NITD609-resistant line, SYBR Green, dry powder (AID 1159571).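 Also: parasites synchronized at ring stage by sorbitol before testing.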 It counts as functional, cell-based.
Assay [17] can be described thus: HepG2 cell cytotoxicity, dose response, cytotoxicity control, plate reader, dry powder samples (AID 1159569).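 Also: inhibitor potency with signal falling toward the positive control level.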 The format is functional, cell-based.
The nature of assay [18]: P. falciparum Dd2 growth inhibitors, dose response, SYBR Green, dry powder samples (AID 1159566).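 Also: potency for growth inhibition with lower SYBR green DNA signal.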 The format is functional, cell-based.
The nature of assay [19]: P. falciparum Dd2 growth inhibitors, dose response, SYBR Green, cherry-picked samples (AID 1159567). It counts as functional, cell-based.
The nature of assay [20]: P. falciparum Dd2 blood-stage growth inhibition, dose response, SYBR Green fluorescence, erythrocytes, dry powder, set 2 (AID 1159574). The format is functional, cell-based.

Calls of active or inactive are those of the source.

Bifunctional protein GlmU, sequence (P9WMN3 whole entry): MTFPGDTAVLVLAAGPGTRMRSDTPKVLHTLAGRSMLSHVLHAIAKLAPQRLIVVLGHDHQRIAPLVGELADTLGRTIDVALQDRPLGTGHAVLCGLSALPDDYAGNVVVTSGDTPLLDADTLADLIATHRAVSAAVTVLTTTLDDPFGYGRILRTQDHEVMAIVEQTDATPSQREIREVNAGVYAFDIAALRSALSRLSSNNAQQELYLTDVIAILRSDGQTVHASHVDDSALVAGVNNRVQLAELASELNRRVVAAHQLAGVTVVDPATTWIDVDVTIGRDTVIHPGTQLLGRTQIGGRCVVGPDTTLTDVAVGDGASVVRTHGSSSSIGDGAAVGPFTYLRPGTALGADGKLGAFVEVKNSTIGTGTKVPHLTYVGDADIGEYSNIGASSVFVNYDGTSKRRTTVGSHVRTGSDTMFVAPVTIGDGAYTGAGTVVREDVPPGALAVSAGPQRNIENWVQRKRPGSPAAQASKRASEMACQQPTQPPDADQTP
RNA-editing ligase 1, mitochondrial, sequence (P86926 whole entry): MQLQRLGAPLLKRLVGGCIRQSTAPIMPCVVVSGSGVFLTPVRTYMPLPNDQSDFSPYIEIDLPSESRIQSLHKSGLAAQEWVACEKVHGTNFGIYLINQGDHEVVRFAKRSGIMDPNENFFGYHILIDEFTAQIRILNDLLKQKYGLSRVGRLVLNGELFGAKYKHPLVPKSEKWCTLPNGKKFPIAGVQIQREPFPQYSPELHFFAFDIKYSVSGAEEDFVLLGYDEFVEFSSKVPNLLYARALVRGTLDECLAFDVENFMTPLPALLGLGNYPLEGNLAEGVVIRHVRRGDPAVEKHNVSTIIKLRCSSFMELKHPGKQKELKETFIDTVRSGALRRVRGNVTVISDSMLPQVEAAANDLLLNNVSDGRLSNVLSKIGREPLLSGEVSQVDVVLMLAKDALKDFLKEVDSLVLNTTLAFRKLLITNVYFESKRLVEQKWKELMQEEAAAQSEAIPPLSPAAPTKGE

For the molecule `O=C(O)c1cccc(Cn2c(Cl)c(/C=N/NC(=O)c3cc4ccccc4cc3O)sc2=O)c1`, the AC50 on Caspase-6 was 18.1 µM (active). For the same molecule, the IC50 is > 50 µM (not active) in assay [1]; 1.86 µM (active) on SUMO-activating enzyme [2]; 24.1 µM (active) at SUMO-activating enzyme [3]; 3.74 µM (active) in assay [4]; 134 µM (active) in [5].
Take `COc1ccc(C2CC(=O)Oc3cc(OC)ccc32)cc1` (configuration not stated): the IC50 on Protein Tat is > 100 µM (active).
On to `Cc1ccc2nc3sc(C(=O)N4CCOCC4)c(N)c3cc2c1`, for which the EC50 was 0.927 µM (active) in [6]; 2.37 µM (active) in [7]; 46.8 µM (active) in [8]; < 0.1 µM (active) in [9]; 2.01 µM (active) in assay [10]; > 12 µM (inconclusive) in [12]. For the same molecule, the EC50 in [13] was > 300 µM (inconclusive). In assay [11], the IC50 was > 80 µM (inactive).
For `COC(=O)C1=C(C)N(Cc2cccc(C(F)(F)F)c2)C(NCc2cc(OC)c(OC)c(OC)c2)=NC1c1ccccc1C(F)(F)F` (configuration not stated), in assay [14], the IC50 is > 96.6 µM (inactive).
Consider `COc1cccc(C#Cc2ccc([C@H]3[C@@H](CO)N4C(=O)CN(C(=O)Cc5ccccc5)C[C@H]34)cc2)c1`, for which the AC50 in [15] was 0.114 µM (active); in assay [16] it was 0.0363 µM (active); in assay [17], 21.1 µM (active); in [18] it was 0.0301 µM (active); in assay [19], < 0.3 µM (active); in assay [20], 0.0195 µM (active).

Broadly, the AC50 is the midpoint of the concentration-response curve, whichever way the signal moves. Broadly, the IC50 is the concentration that inhibits the measured activity by half. In general, EC50 refers to the concentration that produces a half-maximal response.

Values taken from ChEMBL document CHEMBL1201862, “PubChem BioAssay data set” (2004).
